# Reference: paper PMC6359543, “Efficacy of Azatyrosine-Phenylbutyric Hydroxamides, a Histone Deacetylase Inhibitor, on Chemotherapy-Induced Gastrointestinal Mucositis” (International Journal of Molecular Sciences, 2019)
# Where two headings read alike, the source gives them in different places.
# Experiments:
# Pan HDAC enzyme = assay: HDAC fluorometric activity assay, pan HDAC; assay type: biochemical
# Description: (§1) Pan HDAC enzyme (all the known class I HDACs-HDAC1, HDAC2, HDAC3, HDAC8 and class II HDACs 4-7, 9 and 10), HDAC subtype 1, 3 and 4 activity were determined by using the HDAC fluorometric cellular activity assay (Enzo Life Sciences, Farmingdale, NY, USA) according to the manufacturer’s protocol. […] Percent activity for each of the test compounds is calculated as follows:
# (§2) Activity = {(Sc − B)/(S° − B)} × 100. […] IC50 was then calculated and represented as mean ± SD.
# HDAC3 = molecular target: T1, HDAC3 (Homo sapiens, UniProt O15379); assay: HDAC fluorometric activity assay, HDAC3; assay type: biochemical
# T1 construct: purchased Enzo Life Sciences, Farmingdale, NY, USA
# T1 sequence (O15379 whole entry, species assumed): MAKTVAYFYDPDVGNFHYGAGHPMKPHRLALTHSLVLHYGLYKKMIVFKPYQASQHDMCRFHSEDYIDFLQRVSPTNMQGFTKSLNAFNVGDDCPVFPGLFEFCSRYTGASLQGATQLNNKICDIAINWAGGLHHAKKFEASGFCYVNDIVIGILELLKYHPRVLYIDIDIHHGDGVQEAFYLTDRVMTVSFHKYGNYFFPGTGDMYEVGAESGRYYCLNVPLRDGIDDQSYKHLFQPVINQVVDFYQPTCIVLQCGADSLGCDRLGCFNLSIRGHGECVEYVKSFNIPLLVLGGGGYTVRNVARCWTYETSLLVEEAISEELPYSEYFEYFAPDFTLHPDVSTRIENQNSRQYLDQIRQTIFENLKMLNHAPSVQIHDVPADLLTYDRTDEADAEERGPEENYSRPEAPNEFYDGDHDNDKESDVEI
# T1 sequence (O75376 395-489 partner limits assumed, species assumed): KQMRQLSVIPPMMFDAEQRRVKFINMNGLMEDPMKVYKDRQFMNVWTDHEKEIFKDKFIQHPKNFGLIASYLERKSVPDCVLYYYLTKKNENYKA
# Description: as §1, §2
# HDAC4 = molecular target: T2, HDAC4 (Homo sapiens, UniProt P56524); assay: HDAC fluorometric activity assay, HDAC4; assay type: biochemical
# T2 construct: purchased Enzo Life Sciences, Farmingdale, NY, USA
# T2 sequence (P56524 whole entry, species assumed): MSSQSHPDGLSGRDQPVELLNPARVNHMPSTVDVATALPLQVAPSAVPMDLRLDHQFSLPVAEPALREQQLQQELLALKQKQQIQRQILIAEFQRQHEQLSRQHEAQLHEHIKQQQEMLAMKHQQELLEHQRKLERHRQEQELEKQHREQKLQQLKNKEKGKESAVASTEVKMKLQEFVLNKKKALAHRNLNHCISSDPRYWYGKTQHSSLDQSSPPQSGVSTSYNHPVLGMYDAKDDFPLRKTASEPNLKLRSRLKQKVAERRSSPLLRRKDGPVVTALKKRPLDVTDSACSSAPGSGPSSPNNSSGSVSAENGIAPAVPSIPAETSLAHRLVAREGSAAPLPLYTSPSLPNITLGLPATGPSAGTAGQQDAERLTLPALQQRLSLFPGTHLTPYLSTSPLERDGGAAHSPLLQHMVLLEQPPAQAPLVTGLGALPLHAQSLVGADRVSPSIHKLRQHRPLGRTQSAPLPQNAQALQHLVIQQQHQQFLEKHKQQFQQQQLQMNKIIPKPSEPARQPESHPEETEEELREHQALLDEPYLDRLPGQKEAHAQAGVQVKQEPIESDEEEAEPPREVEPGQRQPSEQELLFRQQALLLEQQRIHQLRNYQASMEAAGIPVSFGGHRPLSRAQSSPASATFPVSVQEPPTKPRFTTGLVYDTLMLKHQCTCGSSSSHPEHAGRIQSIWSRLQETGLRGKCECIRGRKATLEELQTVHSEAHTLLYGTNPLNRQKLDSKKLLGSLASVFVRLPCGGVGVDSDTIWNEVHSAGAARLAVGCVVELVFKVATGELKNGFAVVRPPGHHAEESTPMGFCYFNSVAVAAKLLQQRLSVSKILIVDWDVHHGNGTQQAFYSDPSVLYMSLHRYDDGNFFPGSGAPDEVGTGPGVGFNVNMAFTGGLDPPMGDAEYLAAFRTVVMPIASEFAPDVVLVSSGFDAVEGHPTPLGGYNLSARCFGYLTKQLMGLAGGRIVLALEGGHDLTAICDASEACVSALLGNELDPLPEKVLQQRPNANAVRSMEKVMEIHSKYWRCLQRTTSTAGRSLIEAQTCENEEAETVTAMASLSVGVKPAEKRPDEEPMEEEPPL
# Description: as §1, §2
# acetyl-histone H3 = assay: Western blot of acetyl-histone H3 in IEC-6 cells; assay type: cell-based, Rat; settings: AzP 5, 10 and 20 μM, 24 h
# Description: Figure 3 In vitro histone deacetylase (HDAC) activity. […] Cell lysates were used for acetyl-histone H3 protein expression by Western blot. Data are expressed as means ± SD from 3 independent experiments. *** p < 0.001 as compared with the resting and ** p < 0.01 as compared with the resting (B).
# IEC-6 cells were incubated in different AzP concentrations with/without LPS stimulation for 24 h. The homogenate from cells or tissues was then centrifuged at 14,000× g for 10 min at 4 °C and the supernatant was collected. Protein separation was performed using 10% reducing SDS-PAGE, electrotransferred onto polyvinylidene difluoride (PVDF), and immunoblotted with antibodies against inflammatory proteins as well as β-actin as control. Densitometry was performed using BioLight software V2000.01 (Uhldingen-Mühlhofen, Germany). The optical density of specific protein was normalized to an internal control and expressed as a ratio to control.
# [1] = tested on: Salmonella typhimurium TA98; assay: Salmonella/microsome reversion assay (Ames test), TA98; assay type: cell-based
# [2] = tested on: Salmonella typhimurium TA102
# Description: Five strains of Salmonella typhimurium, TA98, TA102, TA100, TA1537, and TA1535, were obtained from Moltox (Boone, NC, USA). Mutagenicity was evaluated by the incorporation method in the presence or absence of S9 metabolic activation. A volume of 100 µL of each test bacterial culture (10^9 cells/mL), 2 mL soft agar (0.6% agar, 0.5% NaCl, 5 mM histidine, and […], pH 7.4, 40–50 °C), 0.5 mL S9 mixture (if necessary), and AzP were mixed well in a test tube. […] The revertant colonies were counted, and a positive mutagenic response was identified when (i) the number of revertants was at least double the spontaneous yield; (ii) a statistical significance (p ≤ 0.05) was found; and (iii) a reproducible positive dose response was present.
# [3] = tested on: Salmonella typhimurium TA1535; assay type: cell-based
# male ICR mice = assay: Micronucleus test; settings: mouse, in vivo
# Description: Male ICR mice (n = 5) were administered AzP orally by gavage, at doses of 5, 50, and 500 mg/kg body weight. […] At 24, 48, and 72 h after dosing, 2-μL blood samples were collected from the tail vein onto a slide stained with acridine orange (40 μg/mL). The ratio (%) of polychromatic erythrocytes (PCEs) to total erythrocytes was determined using fluorescence microscopy. In addition, the frequency of micronucleated polychromatic erythrocytes (MNPCEs; ‰) was counted to a total of 1000 erythrocytes or PCEs per animal.
smiles,measurement,setting,value
"CC(C)(C)OC(=O)NC(Cc1ccc(OCc2ccccc2)cn1)C(=O)Nc1ccc(CCCC(=O)NO)cc1 (stereo not drawn) [AzP, Azatyrosine-phenylbutyric hydroxamides]",IC50,Pan HDAC enzyme,1650 ± 103 nM
same,IC50,HDAC3,660 ± 99 nM
same,IC50,HDAC4,1970 ± 110 nM
same,"histone acetylation (acetyl-histone H3, Western blot)",acetyl-histone H3,elevated histone acetylation
same,"Ames test result, TA98 (-S9)",[1]; -S9,Negative
same,Revertant colonies per plate (+S9) TA98,[1]; AzP 0.00245 mg/plate,59.7±3.8
same,Revertant colonies per plate (-S9) TA98,[1]; AzP 0.00245 mg/plate,42±4.6
same,Revertant colonies per plate (+S9) TA98,[1]; AzP 0.0049 mg/plate,58.3±4.7
same,Revertant colonies per plate (-S9) TA98,[1]; AzP 0.0049 mg/plate,29±5.7
same,Revertant colonies per plate (+S9) TA98,[1]; AzP 0.0098 mg/plate,56.3±3.4
same,Revertant colonies per plate (-S9) TA98,[1]; AzP 0.0098 mg/plate,24±5.4
same,Revertant colonies per plate (+S9) TA98,[1]; AzP 0.0195 mg/plate,59.7±0.7
same,Revertant colonies per plate (-S9) TA98,[1]; AzP 0.0195 mg/plate,33.7±3
same,Revertant colonies per plate (+S9) TA98,[1]; AzP 0.0391 mg/plate,62.7±2.3
same,Revertant colonies per plate (-S9) TA98,[1]; AzP 0.0391 mg/plate,33.7±2.8
same,Revertant colonies per plate (+S9) TA98,[1]; AzP 0.0781 mg/plate,56.3±2.2
same,Revertant colonies per plate (+S9) TA98,[1]; AzP 0.156 mg/plate,61±1.2
same,Revertant colonies per plate (+S9) TA98,[1]; AzP 0.3125 mg/plate,69.7±5.8
same,Revertant colonies per plate (+S9) TA98,[1]; AzP 0.625 mg/plate,64±2.9
same,"Ames test result, TA98 (|S9)",[1]; second S9 group,Negative
same,"Ames test result, TA102 (-S9)",[2]; -S9,Negative
same,Revertant colonies per plate (+S9) TA102,[2]; AzP 0.00245 mg/plate,219.7±6.9
same,Revertant colonies per plate (-S9) TA102,[2]; AzP 0.00245 mg/plate,141±4.4
same,Revertant colonies per plate (+S9) TA102,[2]; AzP 0.0049 mg/plate,225.7±4.5
same,Revertant colonies per plate (-S9) TA102,[2]; AzP 0.0049 mg/plate,142.3±4.7
same,Revertant colonies per plate (+S9) TA102,[2]; AzP 0.0098 mg/plate,215±4
same,Revertant colonies per plate (-S9) TA102,[2]; AzP 0.0098 mg/plate,140.3±7.9
same,Revertant colonies per plate (+S9) TA102,[2]; AzP 0.0195 mg/plate,230.7±2
same,Revertant colonies per plate (-S9) TA102,[2]; AzP 0.0195 mg/plate,139.5±5.6
same,Revertant colonies per plate (+S9) TA102,[2]; AzP 0.0391 mg/plate,212.2±9.2
same,Revertant colonies per plate (-S9) TA102,[2]; AzP 0.0391 mg/plate,138.3±8.5
same,Revertant colonies per plate (+S9) TA102,[2]; AzP 0.0781 mg/plate,233.3±9.8
same,Revertant colonies per plate (-S9) TA102,[2]; AzP 0.0781 mg/plate,152.7±11.3
same,Revertant colonies per plate (+S9) TA102,[2]; AzP 0.156 mg/plate,217.3±4.8
same,Revertant colonies per plate (+S9) TA102,[2]; AzP 0.3125 mg/plate,230.1±8.4
same,Revertant colonies per plate (+S9) TA102,[2]; AzP 0.625 mg/plate,217.4±7.3
same,"Ames test result, TA102 (|S9)",[2]; second S9 group,Negative
same,"Ames test result, TA1535 (-S9)",[3]; -S9,Negative
same,Revertant colonies per plate (-S9) TA1535,[3]; AzP 0.0195 mg/plate,52±1.2
same,Revertant colonies per plate (+S9) TA1535,[3]; AzP 0.0391 mg/plate,46.5±3.3
same,Revertant colonies per plate (-S9) TA1535,[3]; AzP 0.0391 mg/plate,47.3±9
same,Revertant colonies per plate (+S9) TA1535,[3]; AzP 0.0781 mg/plate,50.5±4.9
same,Revertant colonies per plate (-S9) TA1535,[3]; AzP 0.0781 mg/plate,59±0.6
same,Revertant colonies per plate (+S9) TA1535,[3]; AzP 0.156 mg/plate,52.5±5.2
same,Revertant colonies per plate (-S9) TA1535,[3]; AzP 0.156 mg/plate,61.3±2.2
same,Revertant colonies per plate (+S9) TA1535,[3]; AzP 0.3125 mg/plate,51.7±3.6
same,Revertant colonies per plate (-S9) TA1535,[3]; AzP 0.3125 mg/plate,54.6±7.2
same,Revertant colonies per plate (+S9) TA1535,[3]; AzP 0.625 mg/plate,59.2±3.3
same,Revertant colonies per plate (-S9) TA1535,[3]; AzP 0.625 mg/plate,52.2±13.4
same,Revertant colonies per plate (+S9) TA1535,[3]; AzP 1.25 mg/plate,67±3.2
same,Revertant colonies per plate (+S9) TA1535,[3]; AzP 2.5 mg/plate,58±2.1
same,"Ames test result, TA1535 (|S9)",[3]; second S9 group,Negative
same,Micronucleus Test result,male ICR mice,Negative
same,"structure of intestinal mucosa, villus length and crypt depth (H&E)","C57BL/6 mice; 250 mg/kg/day group, days 3 and 5",restored
same,Relative mean body weight (day 0 = 100%),"C57BL/6 mice; day 5, AzP 50 mg/kg gavage days −1, 0, 1 + cisplatin 11 mg/kg",78.7 ± 4.7%
same,Relative mean body weight (day 0 = 100%),"C57BL/6 mice; day 5, AzP 100 mg/kg gavage days −1, 0, 1 + cisplatin 11 mg/kg",80.5 ± 3.4%
same,Relative mean body weight (day 0 = 100%),"C57BL/6 mice; day 5, AzP 250 mg/kg gavage days −1, 0, 1 + cisplatin 11 mg/kg",89.1 ± 8.1%
same,MCP-1 expression in intestine (IHC),"C57BL/6 mice; day 5, cisplatin 11 mg/kg",dose-dependently reduced
same,Serum IL-6 level (ELISA),"C57BL/6 mice; day 5, cisplatin 11 mg/kg",inhibit cisplatin-induced IL-6 production in a dose-dependent manner
same,TNF-α expression in intestine (IHC),"C57BL/6 mice; day 5, cisplatin 11 mg/kg",dose-dependently reduced
